Source: patent publication US9079913B2, “Spiro-oxindole MDM2 antagonists” (The Regents of the University of Michigan, priority 2009, dated 2015)
“And” between values parts separate entries of the source, which are not always exact repeats. Identical values can stand only once.

How the values were obtained:
[1] = In vitro microsomal stability, rat; assay type: in vitro ADME
[2] = In vitro microsomal stability, dog; assay type: in vitro ADME; settings: for Microsomal stability, % remaining: Dog microsomes
[3] = Pharmacokinetic studies in rats; assay type: in vivo, rat; settings: for Plasma Concentration: male rat
Procedure: Pharmacokinetic studies on MDM2 inhibitors were carried out in rat. For comparison, the MDM2 inhibitor, AT-219, was also studied.

[4] = rats, IV 5 mg/kg, animals and MEAN
[5] = rats, IV 5 mg/kg, animals and MEAN, mean
[6] = rats, PO 25 mg/kg, animals and MEAN

Substance: MI-219
- % of compound remaining when incubated in rat liver microsomes ([1]; Table 17, 15 min): 51.9%
- % of compound remaining when incubated in rat liver microsomes ([1]; Table 17, 30 min): 49.3%
- microsomal stability (in words) ([1]; rat liver microsomes): metabolized fairly rapidly
- Microsomal stability, % remaining ([2]; 0 min): 100.00%
- Microsomal stability, % remaining ([2]; 5 min): 83.38%
- Microsomal stability, % remaining ([2]; 10 min): 71.22%
- Microsomal stability, % remaining ([2]; 15 min): 71.51%
- Microsomal stability, % remaining ([2]; 30 min): 54.96%
- Microsomal stability, % remaining ([2]; 45 min): 33.81%
- Microsomal stability, % remaining ([2]; 60 min): 32.52%
- microsomal stability (in words) ([2]; dog microsomes): metabolized fairly rapidly
- Plasma Concentration ([3]; IV 5 mg/kg, 0.083 hr, animals M1, M2 and Mean): 5.8733 µg/mL and 5.2293 µg/mL
- Plasma Concentration ([3]; IV 5 mg/kg, 0.083 hr, animals M1, M2 and Mean, mean): 5.5513 µg/mL
- Plasma Concentration ([3]; IV 5 mg/kg, 0.5 hr, animals and Mean): 0.69345 µg/mL and 0.54839 µg/mL
- Plasma Concentration ([3]; IV 5 mg/kg, 0.5 hr, animals and Mean, mean): 0.62092 µg/mL
- Plasma Concentration ([3]; IV 5 mg/kg, 1 hr, animals and Mean): 0.33071 µg/mL and 0.34466 µg/mL
- Plasma Concentration ([3]; IV 5 mg/kg, 1 hr, animals and Mean, mean): 0.33768 µg/mL
- Plasma Concentration ([3]; IV 5 mg/kg, 2 hr, animals and Mean): 0.16488 µg/mL and 0.13491 µg/mL
- Plasma Concentration ([3]; IV 5 mg/kg, 2 hr, animals and Mean, mean): 0.1499 µg/mL
- Plasma Concentration ([3]; IV 5 mg/kg, 4 hr, animals and Mean): 0.04927 µg/mL and 0.0565 µg/mL
- Plasma Concentration ([3]; IV 5 mg/kg, 4 hr, animals and Mean, mean): 0.05288 µg/mL
- Plasma Concentration ([3]; IV 5 mg/kg, 6 hr, animals and Mean): 0.02418 µg/mL and 0.03266 µg/mL
- Plasma Concentration ([3]; IV 5 mg/kg, 6 hr, animals and Mean, mean): 0.02842 µg/mL
- Plasma Concentration ([3]; IV 5 mg/kg, 8 hr, animals and Mean): 0.01105 µg/mL and 0.01898 µg/mL
- Plasma Concentration ([3]; IV 5 mg/kg, 8 hr, animals and Mean, mean): 0.01502 µg/mL
- Plasma Concentration ([3]; IV 5 mg/kg, 24 hr, animals and Mean): 0.00186 µg/mL and 0.00128 µg/mL
- Plasma Concentration ([3]; IV 5 mg/kg, 24 hr, animals and Mean, mean): 0.00157 µg/mL
- Plasma Concentration ([3]; PO 25 mg/kg, 0.083 hr, animals M6-M8 and Mean): 1.52657 µg/mL and 1.38003 µg/mL and 1.64242 µg/mL
- Plasma Concentration ([3]; PO 25 mg/kg, 0.083 hr, animals M6-M8 and Mean, mean): 1.51634 µg/mL
- Plasma Concentration ([3]; PO 25 mg/kg, 0.5 hr, animals and Mean): 3.33219 µg/mL and 2.50025 µg/mL and 4.27856 µg/mL
- Plasma Concentration ([3]; PO 25 mg/kg, 0.5 hr, animals and Mean, mean): 3.37033 µg/mL
- Plasma Concentration ([3]; PO 25 mg/kg, 1 hr, animals and Mean): 3.10106 µg/mL and 2.95744 µg/mL and 1.77931 µg/mL
- Plasma Concentration ([3]; PO 25 mg/kg, 1 hr, animals and Mean, mean): 2.6126 µg/mL
- Plasma Concentration ([3]; PO 25 mg/kg, 2 hr, animals and Mean): 1.06421 µg/mL and 1.53441 µg/mL and 1.34218 µg/mL
- Plasma Concentration ([3]; PO 25 mg/kg, 2 hr, animals and Mean, mean): 1.3136 µg/mL
- Plasma Concentration ([3]; PO 25 mg/kg, 4 hr, animals and Mean): 0.296644 µg/mL and 0.223937 µg/mL and 0.407415 µg/mL
- Plasma Concentration ([3]; PO 25 mg/kg, 4 hr, animals and Mean, mean): 0.30933 µg/mL
- Plasma Concentration ([3]; PO 25 mg/kg, 6 hr, animals and Mean): 0.103285 µg/mL and 0.0908093 µg/mL and 0.131398 µg/mL
- Plasma Concentration ([3]; PO 25 mg/kg, 6 hr, animals and Mean, mean): 0.1085 µg/mL
- Plasma Concentration ([3]; PO 25 mg/kg, 8 hr, animals and Mean): 0.0804445 µg/mL and 0.0662777 µg/mL
- Plasma Concentration ([3]; PO 25 mg/kg, 8 hr, animals and Mean, mean): 0.06476 µg/mL
- Plasma Concentration ([3]; PO 25 mg/kg, 24 hr, animals and Mean): 0.0251348 µg/mL and 0.0175136 µg/mL and 0.0202154 µg/mL
- Plasma Concentration ([3]; PO 25 mg/kg, 24 hr, animals and Mean, mean): 0.02095 µg/mL
- % F ([3]; male rats, oral dose 25 mg/kg): 65%
- AUC(0-t) ([3]; male rats, oral dose 25 mg/kg): 7677 ± 328
- Cmax ([3]; male rats, oral dose 25 mg/kg): 3.751 ± 1.068 µg/mL
- T1/2 ([3]; male rats, oral dose 25 mg/kg): 1.4 ± 0.1 h
- oral bioavailability / oral pharmacokinetics in rats (in words) ([3]; oral dosing, rats): orally bioavailable
- AUC(0-t) [3, 4]: 2318.88 µg·h/L and 2379.54 µg·h/L
- AUC(0-∞) [3, 4]: 2.31977 µg·h/mL and 2.37962 µg·h/mL
- CLz [3, 4]: 2.16 L/h/kg and 2.10 L/h/kg
- Cmax [3, 4]: 5.2293 µg/mL and 5.8733 µg/mL
- MRT(0-∞) [3, 4]: 1.51 h and 1.26 h
- T1/2 [3, 4]: 2.54 h and 1.86 h
- Vz [3, 4]: 7.90 L/kg and 5.62 L/kg
- AUC(0-t) [3, 5]: 2349.21 µg·h/L
- AUC(0-∞) [3, 5]: 2.34969 µg·h/mL
- CLz [3, 5]: 2.13 L/h/kg
- Cmax [3, 5]: 5.5513 µg/mL
- MRT(0-∞) [3, 5]: 1.38 h
- T1/2 [3, 5]: 2.20 h
- Vz [3, 5]: 6.76 L/kg
- F ([3]; rats, PO 25 mg/kg vs IV 5 mg/kg, animals and MEAN): 65.45±2.77% and 62.81% and 65.22% and 68.34% and 65.45%
- AUC(0-t) [3, 6]: 7378.78 µg·h/L and 7623.45 µg·h/L and 8028.71 µg·h/L
- AUC(0-∞) [3, 6]: 7.68994 ± 0.32586 µg·h/mL and 7.37881 µg·h/mL and 7.66225 µg·h/mL and 8.02876 µg·h/mL and 7.68994 µg·h/mL
- Cmax [3, 6]: 3.33219 µg/mL and 2.95744 µg/mL and 4.9657 µg/mL and 3.75178 µg/mL
- MRT(0-∞) [3, 6]: 2.64 h and 2.67 h and 2.62 h
- T1/2 [3, 6]: 1.36 h and 1.54 h and 1.40 h and 1.43 h
- AUC(0-t) ([3]; rats, PO 25 mg/kg, animals and MEAN, mean): 7676.98 µg·h/L
